Experimental data published in publication PMC6949936, “Probing the Interactions of Sulfur-Containing Histidine Compounds with Human Gamma-Glutamyl Transpeptidase” (Marine Drugs, 2019).

Molecular target: T1, Gamma-glutamyl transpeptidase (eqGGT) (Equus caballus, UniProt F7DXY0)
T1 construct: GGT from equine kidney (Sigma-Aldrich)
Assay: time-dependent irreversible inactivation, pre-incubation with […] DON then dilution
Assay type: biochemical

T1 sequence (F7DXY0 75-452): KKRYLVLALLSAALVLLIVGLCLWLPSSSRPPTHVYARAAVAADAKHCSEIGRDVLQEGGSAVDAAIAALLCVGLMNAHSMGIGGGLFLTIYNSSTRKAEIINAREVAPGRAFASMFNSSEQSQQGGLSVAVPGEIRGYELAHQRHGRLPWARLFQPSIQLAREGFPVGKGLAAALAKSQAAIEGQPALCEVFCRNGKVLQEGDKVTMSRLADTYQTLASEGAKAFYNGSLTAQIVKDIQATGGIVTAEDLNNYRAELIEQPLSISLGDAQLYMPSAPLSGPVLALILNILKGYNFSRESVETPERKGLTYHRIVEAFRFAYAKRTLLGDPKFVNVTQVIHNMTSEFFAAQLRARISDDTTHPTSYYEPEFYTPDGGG
T1 sequence (F7DXY0 453-641): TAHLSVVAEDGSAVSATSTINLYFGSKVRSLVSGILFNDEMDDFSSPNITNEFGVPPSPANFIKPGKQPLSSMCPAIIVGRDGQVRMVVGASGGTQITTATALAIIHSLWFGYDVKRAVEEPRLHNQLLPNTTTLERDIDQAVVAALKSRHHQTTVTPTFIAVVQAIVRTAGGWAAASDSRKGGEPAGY

[N-]=[N+]=CC(=O)CC[C@H](N)C(=O)O [DON, 6-diazo-5-oxo-L-norleucine]
time-dependent irreversible inactivation, pre-incubation with 400 μM DON then di: DON acts as an irreversible inhibitor, and then as an inactivator of GGT, because, after dilution, the activity was not restored
